In patent US8802700B2 (Vertex Pharmaceuticals Incorporated, priority 2010, dated 2014):

Biological target: T1, ΔF508-CFTR (Homo sapiens, UniProt P13569, DEL508-508)
T1 construct: expressed in transfected cells
Test: Membrane potential optical assay (FRET voltage-sensor dyes, VIPR), identification of potentiator compounds
Assay type: cell-based
Conditions: Table 3; assay not given
How it was run: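 Potentiator screen measured membrane potential via FRET between CC2-DMPE donor and DiSBAC2(3), read on VIPR II. Compound went in with the first addition of chloride-free gluconate bath; cells were ΔF508-CFTR-expressing NIH3T3 mouse fibroblasts, temperature-corrected at 27 °C for 24 h.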

T1 sequence (P13569 with tags, fused parts or gaps DEL508-508): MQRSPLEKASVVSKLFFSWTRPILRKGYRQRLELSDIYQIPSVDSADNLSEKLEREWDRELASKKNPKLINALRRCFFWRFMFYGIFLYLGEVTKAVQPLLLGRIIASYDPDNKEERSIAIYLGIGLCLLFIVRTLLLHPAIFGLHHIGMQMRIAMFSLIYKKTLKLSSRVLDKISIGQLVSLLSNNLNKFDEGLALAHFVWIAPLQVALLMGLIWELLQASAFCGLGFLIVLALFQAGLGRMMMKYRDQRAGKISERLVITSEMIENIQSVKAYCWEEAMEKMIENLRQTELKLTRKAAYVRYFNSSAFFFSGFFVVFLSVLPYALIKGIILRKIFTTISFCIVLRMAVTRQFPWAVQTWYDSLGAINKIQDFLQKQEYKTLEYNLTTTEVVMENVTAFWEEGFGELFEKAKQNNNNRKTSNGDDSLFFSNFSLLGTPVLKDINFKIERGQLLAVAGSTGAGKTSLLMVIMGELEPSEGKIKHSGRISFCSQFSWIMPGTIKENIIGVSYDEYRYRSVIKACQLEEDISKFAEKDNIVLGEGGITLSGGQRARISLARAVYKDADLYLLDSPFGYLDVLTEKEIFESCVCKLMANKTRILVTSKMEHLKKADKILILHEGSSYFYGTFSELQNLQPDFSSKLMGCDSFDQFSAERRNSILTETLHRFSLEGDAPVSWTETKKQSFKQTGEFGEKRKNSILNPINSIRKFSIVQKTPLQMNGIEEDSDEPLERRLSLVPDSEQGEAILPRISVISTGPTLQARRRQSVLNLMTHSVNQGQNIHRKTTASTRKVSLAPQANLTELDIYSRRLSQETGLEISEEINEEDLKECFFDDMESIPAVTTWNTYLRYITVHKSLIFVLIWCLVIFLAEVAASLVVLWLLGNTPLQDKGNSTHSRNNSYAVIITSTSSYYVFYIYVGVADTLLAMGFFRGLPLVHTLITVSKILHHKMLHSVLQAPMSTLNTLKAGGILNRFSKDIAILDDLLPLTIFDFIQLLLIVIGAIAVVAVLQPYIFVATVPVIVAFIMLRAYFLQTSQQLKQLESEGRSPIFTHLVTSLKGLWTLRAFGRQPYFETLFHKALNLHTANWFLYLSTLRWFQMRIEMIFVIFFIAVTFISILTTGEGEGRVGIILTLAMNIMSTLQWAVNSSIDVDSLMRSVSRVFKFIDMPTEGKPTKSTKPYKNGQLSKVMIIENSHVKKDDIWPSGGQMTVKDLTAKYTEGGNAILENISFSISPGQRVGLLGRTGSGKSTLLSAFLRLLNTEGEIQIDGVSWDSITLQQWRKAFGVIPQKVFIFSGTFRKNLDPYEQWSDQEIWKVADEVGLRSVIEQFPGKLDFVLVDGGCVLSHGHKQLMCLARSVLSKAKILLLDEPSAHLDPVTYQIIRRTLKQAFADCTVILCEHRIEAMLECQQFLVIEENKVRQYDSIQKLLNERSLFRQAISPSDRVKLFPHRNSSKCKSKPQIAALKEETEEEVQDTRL

EC50 [µM] | Compound
< 10 | O=C(Nc1ccccc1-c1cc(F)cc(F)c1)c1c[nH]c2ccccc2c1=O [Compound 138, N-[2-(3,5-difluorophenyl)phenyl]-4-oxo-1H-quinoline-3-carboxamide]

Same assay, conditions: Table 3; assay not given; read-out: % Activity (% Efficacy, relative efficacy)

Emax [%] | Compound
> 100 | CC(C)(C)OC(=O)NC1CCCc2ccc(NC(=O)c3c[nH]c4ccccc4c3=O)cc21 (centres unmarked) [Compound 273, [7-[(4-oxo-1H-quinolin-3-yl)carbonylamino]tetralin-1-yl]aminoformic acid tert-butyl ester]
25 to 100 | CCC(C)c1c[nH]c2cc(NC(=O)c3c[nH]c4ccccc4c3=O)ccc12 (centres unmarked) [Compound 259, 4-oxo-N-(3-sec-butyl-1H-indol-6-yl)-1H-quinoline-3-carboxamide]
25 to 100 | CC(=O)N1CCc2ccc(NC(=O)c3c[nH]c4ccccc4c3=O)cc2C1 [Compound 303, N-(2-acetyl-1,2,3,4-tetrahydroisoquinolin-7-yl)-4-oxo-1H-quinoline-3-carboxamide]
25 to 100 | CC(=O)Nc1cc(NC(=O)c2c[nH]c3ccccc3c2=O)ccc1C [Compound 248, N-(3-Acetylamino-4-methyl-phenyl)-4-oxo-1H-quinoline-3-carboxamide]
< 25 | COc1ccc(NC(=O)c2c[nH]c3ccccc3c2=O)cn1 [Compound 162, N-(6-methoxy-3-pyridyl)-4-oxo-1H-quinoline-3-carboxamide]
25 to 100 | CC(C)(C)c1cc(C(F)(F)F)c(NC(=O)c2c[nH]c3ccccc3c2=O)cc1O [Compound 266, N-[5-hydroxy-4-tert-butyl-2-(trifluoromethyl)phenyl]-4-oxo-1H-quinoline-3-carboxamide]
25 to 100 | CCc1cccc(C)c1NC(=O)c1c[nH]c2ccccc2c1=O [Compound 180, N-(2-ethyl-6-methyl-phenyl)-4-oxo-1H-quinoline-3-carboxamide]
25 to 100 | O=C(Nc1ccccc1-c1ccccc1)c1c[nH]c2ccccc2c1=O [Compound 461, 4-oxo-N-(2-phenylphenyl)-1H-quinoline-3-carboxamide]
> 100 | COC(=O)C1CCCCN1c1ccc(NC(=O)c2c[nH]c3ccccc3c2=O)c(C(F)(F)F)c1 (centres unmarked) [Compound 492, methyl 1-[4-[(4-oxo-1H-quinolin-3-yl)carbonylamino]-3-(trifluoromethyl)phenyl]piperidine-2-carboxylate]
< 25 | CCOc1cccc2c(=O)c(C(=O)Nc3cc4[nH]ccc4cc3C(C)(C)C)c[nH]c12 [Compound 641, 8-ethoxy-4-oxo-N-(5-tert-butyl-1H-indol-6-yl)-1H-quinoline-3-carboxamide]
25 to 100 | O=C(Nc1cccc(Cc2ccccc2)c1)c1c[nH]c2ccccc2c1=O [Compound 389, N-(3-benzylphenyl)-4-oxo-1H-quinoline-3-carboxamide]
25 to 100 | CC(C)c1cccc(C(C)C)c1NC(=O)c1c[nH]c2ccccc2c1=O [Compound 466, N-(2,6-diisopropylphenyl)-4-oxo-1H-quinoline-3-carboxamide]
25 to 100 | CC1(c2cc(F)c(NC(=O)c3c[nH]c4cccc(O)c4c3=O)cc2O)CCCCC1 [Compound 287, N-[2-fluoro-5-hydroxy-4-(1-methylcyclohexyl)-phenyl]-5-hydroxy-4-oxo-1H-quinoline-3-carboxamide]
25 to 100 | O=C(Nc1ccccc1-c1ccc(F)cc1F)c1c[nH]c2ccccc2c1=O [Compound 63, N-[2-(2,4-difluorophenyl)phenyl]-4-oxo-1H-quinoline-3-carboxamide]
25 to 100 | Cc1cc(C)c(NC(=O)c2c[nH]c3ccccc3c2=O)c(C)c1 [Compound 50, 4-oxo-N-(2,4,6-trimethylphenyl)-1H-quinoline-3-carboxamide]
< 25 | O=C(Nc1ccc2c(c1)S(=O)(=O)C=C2)c1c[nH]c2ccccc2c1=O [Compound 446, N-(1,1-dioxobenzothiophen-6-yl)-4-oxo-1H-quinoline-3-carboxamide]

Emax [%] | Compound
25 to 100 | CC(C)(C)c1ccc(NC(=O)c2c[nH]c3ccc(F)cc3c2=O)cc1F [Compound 527, 6-fluoro-N-(3-fluoro-4-tert-butyl-phenyl)-4-oxo-1H-quinoline-3-carboxamide]
25 to 100 | CC(C)(C)c1cc(C(C)(C)C)c(NC(=O)c2c[nH]c3ccc(O)cc3c2=O)cc1O [Compound 702, 6-hydroxy-N-(5-hydroxy-2,4-ditert-butyl-phenyl)-4-oxo-1H-quinoline-3-carboxamide]
25 to 100 | CC(C)(C)c1cc2cc[nH]c2cc1NC(=O)c1c[nH]c2cc(OC(F)(F)F)ccc2c1=O [Compound 632, 4-oxo-N-(5-tert-butyl-1H-indol-6-yl)-7-(trifluoromethoxy)-1H-quinoline-3-carboxamide]
< 25 | N#Cc1cc(Cl)cc(Cl)c1NC(=O)c1c[nH]c2ccccc2c1=O [Compound 369, N-(2,4-dichloro-6-cyano-phenyl)-4-oxo-1H-quinoline-3-carboxamide]
25 to 100 | O=C(Nc1ccc(Oc2ccccc2)cc1)c1c[nH]c2ccccc2c1=O [Compound 267, 4-oxo-N-(4-phenoxyphenyl)-1H-quinoline-3-carboxamide]
25 to 100 | Cc1ccc2c(=O)c(C(=O)Nc3ccc(N4CCC[C@@H]4C)cc3C(F)(F)F)c[nH]c2c1 [Compound 607, (S)-7-methyl-N-(4-(2-methylpyrrolidin-1-yl)-2-(trifluoromethyl)phenyl)-4-oxo-1,4-dihydroquinoline-3-carboxamide]
< 25 | O=C(Nc1ccc(-c2ccccc2)cn1)c1c[nH]c2ccccc2c1=O [Compound 402, 4-oxo-N-(5-phenyl-2-pyridyl)-1H-quinoline-3-carboxamide]
25 to 100 | O=C(Nc1ccc2c(c1)NCC2)c1c[nH]c2ccccc2c1=O [Compound 258, N-Indolin-6-yl-4-oxo-1H-quinoline-3-carboxamide]
25 to 100 | O=C(Nc1ccc(C(F)(F)F)c(O)c1)c1c[nH]c2c(Cl)cccc2c1=O [Compound 716, 8-chloro-N-[3-hydroxy-4-(trifluoromethyl)phenyl]-4-oxo-1H-quinoline-3-carboxamide]
> 100 | O=C(Nc1ccccc1-c1ccc2c(c1)OCO2)c1c[nH]c2ccccc2c1=O [Compound 135, N-(2-benzo[1,3]dioxol-5-ylphenyl)-4-oxo-1H-quinoline-3-carboxamide]
25 to 100 | O=C(Nc1ccccc1-c1cc(F)cc(F)c1)c1c[nH]c2ccccc2c1=O [Compound 138, N-[2-(3,5-difluorophenyl)phenyl]-4-oxo-1H-quinoline-3-carboxamide]
25 to 100 | C[C@@H]1CCCN1c1ccc(NC(=O)c2c[nH]c3ccc(F)cc3c2=O)c(C(F)(F)F)c1 [Compound 684, (R)-6-fluoro-N-(4-(2-methylpyrrolidin-1-yl)-2-(trifluoromethyl)phenyl)-4-oxo-1,4-dihydroquinoline-3-carboxamide]
25 to 100 | CC(C)(C)c1cc(C(C)(C)C)c(NC(=O)c2c[nH]c3cc(OC(F)(F)F)ccc3c2=O)cc1O [Compound 694, N-(5-hydroxy-2,4-ditert-butyl-phenyl)-4-oxo-7-(trifluoromethoxy)-1H-quinoline-3-carboxamide]
25 to 100 | Cc1cccc(Oc2ncccc2NC(=O)c2c[nH]c3ccccc3c2=O)c1C [Compound 206, N-[2-(2,3-dimethylphenoxy)-3-pyridyl]-4-oxo-1H-quinoline-3-carboxamide]
25 to 100 | Cc1cccc2[nH]cc(C(=O)Nc3ccc(N4CCC(F)(F)C4)cc3C(F)(F)F)c(=O)c12 [Compound 528, N-[4-(3,3-difluoropyrrolidin-1-yl)-2-(trifluoromethyl)phenyl]-5-methyl-4-oxo-1H-quinoline-3-carboxamide]
